Source: US20250129028A1, “COMPOUNDS AND METHODS FOR YAP/TEAD MODULATION AND INDICATIONS THEREFOR” (Opna Bio SA, priority 2022, published 2025)

test system: TEAD-dependent transcription; assay: TEAD-dependent transcription cell-based reporter assay (MSTO-211H+12XGTIIC luciferase); parameters: species or system human; conditions: Homo sapiens; MSTO-211H+12XGTIIC cell line, luciferase signal normalized to cell viability, 24 hours compound incubation; read-out: MSTO-211H GMean IC50 (uM) Cell Assay Reporter Cell Variant: TEAD
Summary of the method: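 MSTO-211H mesothelioma cells stably carrying a 12xGTIIC TEAD-response-element luciferase reporter, treated with serial compound dilutions for 24 h at 37 °C. Luminescence normalized to CellTiter-Fluor viability signal; % inhibition versus DMSO and 20 μM K-975 controls, IC50 by nonlinear regression.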

Row | Structure (SMILES) | IC50 [µM]
1 | CC(NS(C)(=O)=O)C(=O)N1CCc2ccc(Oc3ccc(C(F)(F)F)cc3)cc2C1 (stereo not drawn) [P-0135, N-(1-oxo-1-(7-(4-(trifluoromethyl)phen-oxy)-3,4-dihydroisoquin-olin-2(1H)-yl)propan-2-yl)methanesulfonamide] | 0.001 to 10
2 | N=C(N)NCC(=O)N1CCc2ccc(Oc3ccc(C(F)(F)F)cc3)cc2C1 [P-0098, 1-(2-oxo-2-(7-(4-(trifluoromethyl)phen-oxy)-3,4-dihydroiso-quinolin-2(1H)-yl)-ethyl)guanidine] | 0.001 to 10
3 | O=C(Cc1ncc[nH]1)N1CCc2ccc(Oc3ccc(C(F)(F)F)cc3)cc2C1 [P-0165, 2-(1H-imidazol-2-yl)-1-(7-(4-(trifluoromethyl)-phenoxy)-3,4-dihydroiso-quinolin-2(1H)-yl)ethan-1-one] | 0.001 to 10
4 | CC(=O)N1CC=C(c2c(Oc3ccc(C(F)(F)F)cc3)ccc3c2CN(C(=O)CCS(C)(=O)=O)CC3)CC1 [P-0214, 1-(8-(1-acetyl-1,2,3,6-tetrahydropyridin-4-yl)-7-(4-(trifluoromethyl)-phenoxy)-3,4-dihydroiso-quinolin-2(1H)-yl)-3-(methylsulfonyl)propan-1-one] | 10 to 100
5 | Nc1nc(C(=O)N2CCc3ccc(Oc4ccc(C(F)(F)F)cc4)cc3C2)c[nH]1 [P-0107, (2-amino-1H-imidazol-4-yl)(7-(4-(trifluoromethyl)-phenoxy)-3,4-dihydroiso-quinolin-2(1H)-yl)meth-anone] | 0.001 to 10
6 | N#CCCC(=O)N1CCc2ccc(Oc3ccc(C(F)(F)F)cc3)cc2C1 [P-0040, 4-oxo-4-(7-(4-(trifluoro-methyl)phenoxy)-3,4-dihydroisoquinolin-2(1H)-yl)butanenitrile] | 0.001 to 10
7 | C=CS(=O)(=O)N1CCC(C(=O)N2CCc3ccc(Oc4ccc(C(F)(F)F)c(F)c4)cc3C2)CC1 [P-0159] | 0.001 to 10
8 | O=C(C1CCCNC1)N1CCc2ccc(Oc3ccc(C(F)(F)F)c(F)c3)cc2C1 (stereo not drawn) [P-0146, (7-(3-fluoro-4-(trifluoro-methyl)phenoxy)-3,4-dihydroisoquinolin-2(1H)-yl)(piperidin-3-yl)methanone] | 0.001 to 10
9 | C=CS(=O)(=O)N1CC(C(=O)N2CCc3ccc(Oc4ccc(C(F)(F)F)c(F)c4)cc3C2)C1 [P-0157, (7-(3-fluoro-4-(trifluoromethyl)phenoxy)-3,4-dihydroisoquinolin-2(1H)-yl)(1-(vinylsulfonyl)azetidin-3-yl)methanone] | 0.001 to 10
10 | NS(=O)(=O)NCC(=O)N1CCc2ccc(Oc3ccc(C(F)(F)F)cc3)cc2C1 [P-0054, N-(2-(7-(4-(trifluorometh-yl)phenoxy)-3,4-dihydro-isoquinolin-2(1H)-yl)-2-oxoethyl)sulfamide] | 0.001 to 10
11 | COC(=O)N1CCc2ccc(Oc3ccc(C(F)(F)F)cc3)cc2C1 [P-0025, methyl 7-(4-(trifluoro-methyl)phenoxy)-3,4-dihydroisoquinoline-2(1H)-carboxylate] | 0.001 to 10
12 | NS(=O)(=O)CCC(=O)N1CCc2ccc(Oc3ccc(C(F)(F)F)cc3)cc2C1 [P-0048, 3-oxo-3-(7-(4-(trifluoro-methyl)phenoxy)-3,4-dihydroisoquinolin-2(1H)-yl)propane-1-sulfonamide] | 0.001 to 10
13 | O=C(CNS(=O)(=O)C(F)(F)F)N1CCc2ccc(Oc3ccc(C(F)(F)F)c(F)c3)cc2C1 [P-0114, 1,1,1-trifluoro-N-(2-(7-(3-fluoro-4-(trifluoromethyl)phenoxy)-3,4-dihydroisoquinolin-2(1H)-yl)-2-oxoethyl)methanesulfonamide] | 0.001 to 10
14 | O=C1CC(C(=O)N2CCc3ccc(Oc4ccc(C(F)(F)F)cc4)cc3C2)CN1 (stereo not drawn) [P-0088, 4-(7-(4-(trifluorometh-yl)phenoxy)-1,2,3,4-tetrahydroisoquinoline-2-carbonyl)pyrrolidin-2-one] | 0.001 to 10
15 | O=C(Cc1cn[nH]c1)N1CCc2c(cccc2Oc2ccc(C(F)(F)F)cc2)C1 [P-0247, 2-(1H-pyrazol-4-yl)-1-(5-(4-(trifluoromethyl)-phenoxy)-3,4-dihydroiso-quinolin-2(1H)-yl)ethan-1-one] | 0.001 to 10
16 | CS(=O)(=O)CCC(=O)N1CCc2ccc(Oc3ccc(C(F)(F)F)cc3)cc2C1 [P-0018, 3-(methylsulfonyl)-1-(7-(4-(trifluoromethyl)phenoxy)-3,4-dihydroisoquinolin-2(1H)-yl)propan-1-one] | 0.001 to 10
17 | O=C(CCc1cnc[nH]1)N1CCc2c(cccc2Oc2ccc(C(F)(F)F)cc2)C1 [P-0243, 3-(1H-imidazol-5-yl)-1-(5-(4-(trifluoromethyl)-phenoxy)-3,4-dihydroiso-quinolin-2(1H)-yl)pro-pan-1-one] | 0.001 to 10
18 | C=CC(=O)N1CC(C(=O)N2CCc3ccc(Oc4ccc(C(F)(F)F)c(F)c4)cc3C2)C1 [P-0118, 1-(3-(7-(3-fluoro-4-(trifluoromethyl)phen-oxy)-1,2,3,4-tetrahydro-isoquinoline-2-carbon-yl)azetidin-1-yl)prop-2-en-1-one] | 0.001 to 10

Row | Structure (SMILES) | IC50 [µM]
19 | O=C(NC1CCOC1)N1CCc2ccc(Oc3ccc(C(F)(F)F)cc3)cc2C1 (stereo not drawn) [P-0038, N-(tetrahydrofuran-3-yl)-7-(4-(trifluorometh-yl)phenoxy)-3,4-dihydro-isoquinoline-2(1H)-carboxamide] | 0.001 to 10
20 | CN1CCC(C(=O)N2CCc3ccc(Oc4ccc(C(F)(F)F)c(F)c4)cc3C2)CC1 [P-0109, (7-(3-fluoro-4-(trifluoro-methyl)phenoxy)-3,4-dihydroisoquinolin-2(1H)-yl)(1-methylpiper-idin-4-yl)methanone] | 0.001 to 10
21 | O=C(C1CCC1)N1CCc2ccc(Oc3ccc(C(F)(F)F)cc3)cc2C1 [P-0033, cyclobutyl(7-(4-(trifluoro-methyl)phenoxy)-3,4-dihydroisoquinolin-2(1H)-yl)methanone] | 0.001 to 10
22 | CCS(=O)(=O)N1CCc2ccc(Oc3ccc(C(F)(F)F)cc3)cc2C1 [P-0002, 2-(ethylsulfonyl)-7-(4-(trifluoromethyl)phen-oxy)-1,2,3,4-tetrahydro-isoquinoline] | 0.001 to 10
23 | N#Cc1ccncc1NC(=O)N1CCc2ccc(Oc3ccc(C(F)(F)F)cc3)cc2C1 [P-0064, N-(4-Cyanopyridin-3-yl)-7-(4-(trifluoromethyl)phenoxy)-3,4-dihydroisoquinoline-2(1H)-carboxamide] | 0.001 to 10
24 | Nc1nc(C(=O)N2CCc3ccc(Oc4ccc(C(F)(F)F)cc4)cc3C2)cs1 [P-0073, (2-aminothiazol-4-yl)(7-(4-(trifluoromethyl)phen-oxy)-3,4-dihydroisoquin-olin-2(1H)-yl)methanone] | 0.001 to 10
25 | O=C(C1CCNC1)N1CCc2ccc(Oc3ccc(C(F)(F)F)c(F)c3)cc2C1 (stereo not drawn) [P-0145, (7-(3-fluoro-4-(trifluoro-methyl)phenoxy)-3,4-dihydroisoquinolin-2(1H)-yl)(pyrrolidin-3-yl)methanone] | 0.001 to 10
26 | O=C(N1CCc2ccc(Oc3ccc(C(F)(F)F)cc3)cc2C1)C12CC1C2 (stereo not drawn) [P-0011, bicyclo[1.1.0]butan-1-yl(7-(4-(trifluoromethyl)-phenoxy)-3,4-dihydro-isoquinolin-2(1H)-yl)-methanone] | 0.001 to 10
27 | Nc1ccc(C(=O)N2CCc3c(cccc3Oc3ccc(C(F)(F)F)cc3)C2)cn1 [P-0245, (6-aminopyridin-3-yl)(5-(4-(trifluoromethyl)phen-oxy)-3,4-dihydroisoquin-olin-2(1H)-yl)methanone] | 0.001 to 10
28 | CS(=O)(=O)CCC(=O)N1CCc2ccc(Oc3ccc(C(F)(F)F)cc3)cc2C1C1CCN(C(=O)C2CC2)CC1 (stereo not drawn) [P-0210, 1-(1-(1-(cyclopropanecarbonyl)piperidin-4-yl)-7-(4-(trifluoromethyl)phenoxy)-3,4-dihydroisoquinolin-2(1H)-yl)-3-(methylsulfonyl)propan-1-one] | 0.001 to 10
29 | O=C(C1CCS(=O)(=O)CC1)N1CCc2ccc(Oc3ccc(C(F)(F)F)c(F)c3)cc2C1 [P-0143, (1,1-dioxidotetrahydro-2H-thiopyran-4-yl)(7-(3-fluoro-4-(trifluorometh-yl)phenoxy)-3,4-dihydro-isoquinolin-2(1H)-yl)-methanone] | 0.001 to 10
30 | O=C(CCS(=O)(=O)C(F)(F)F)N1CCc2c(cccc2Oc2ccc(C(F)(F)F)cc2)C1 [P-0254, 1-(5-(4-(trifluorometh-yl)phenoxy)-3,4-dihydro-isoquinolin-2(1H)-yl)-3-((trifluoromethyl)sul-fonyl)propan-1-one] | 0.001 to 10
31 | O=S(=O)(C1CCCC1)N1CCc2c(cccc2Oc2ccc(C(F)(F)F)cc2)C1 [P-0236, 2-(cyclopentylsulfonyl)-5-(4-(trifluoromethyl)-phenoxy)-1,2,3,4-tetra-hydroisoquinoline] | 0.001 to 10
32 | CNS(=O)(=O)NCC(=O)N1CCc2ccc(Oc3ccc(C(F)(F)F)cc3)cc2C1 [P-0128, N-methyl-N′-(2-(7-(4-(trifluoromethyl)phen-oxy)-3,4-dihydroisoquin-olin-2(1H)-yl)-2-oxoeth-yl)sulfamide] | 0.001 to 10
33 | O=C(c1cc(C(F)F)[nH]n1)N1CCc2ccc(Oc3ccc(C(F)(F)F)cc3)cc2C1 [P-0103, (5-(difluoromethyl)-1H-pyrazol-3-yl)(7-(4-(trifluoromethyl)phen-oxy)-3,4-dihydroisoquin-olin-2(1H)-yl)methanone] | 0.001 to 10
34 | N#Cc1nc(N2CCc3ccc(Oc4ccc(C(F)(F)F)cc4)cc3C2)cs1 [P-0134, 4-(7-(4-(trifluorometh-yl)phenoxy)-3,4-dihydro-isoquinolin-2(1H)-yl)thi-azole-2-carbonitrile] | 0.001 to 10
35 | CS(=O)(=O)N1CC(C(=O)N2CCc3ccc(Oc4ccc(C(F)(F)F)cc4)cc3C2)C1 [P-0080, (1-(methylsulfonyl)azeti-din-3-yl)(7-(4-(trifluoro-methyl)phenoxy)-3,4-dihydroisoquinolin-2(1H)-yl)methanone] | 0.001 to 10
36 | O=C(C1CCNCC1)N1CCc2ccc(Oc3ccc(C(F)(F)F)c(F)c3)cc2C1 [P-0147, (7-(3-fluoro-4-(trifluoro-methyl)phenoxy)-3,4-dihydroisoquinolin-2(1H)-yl)(piperidin-4-yl)-methanone] | 0.001 to 10
